From US20200190062A1, “HETEROCYCLIC COMPOUND AND PHARMACEUTICAL COMPOSITION COMPRISING SAME” (BEYONDBIO INC., priority 2015, published 2020)
Where a name gives a salt, the structure may show the parent alone. Read-outs that look alike come from different tables or passages of the source.

Legend:
CDK1/cyclinB = molecular target: T1, CDK1/cyclinB (Homo sapiens, UniProt P06493); test: Inhibition of CDK enzyme activity (ADP-Glo kinase assay); assay type: biochemical; conditions: 10 uM ATP, histone H1 substrate
T1 construct: purchased Merck Millipore
Description: (§1) Test compounds were prepared by dissolving the compounds obtained in the above Examples in dimethylsulfoxide (DMSO) at a concentration of 10 mM. The test compounds were diluted to 200 nM, 50 nM, […], 3.13 nM, 0.78 nM, and 0.2 nM and used in an enzyme reaction.
(§2) CDK enzyme reaction was conducted in a buffer containing 50 mM Tris-HCl (pH 7.5), 10 mM MgCl2, 1 mM EGTA, 1 mM EDTA, and 2 mM DTT. CDK1/cyclinB, CDK2/cylcinE, CDK5/p25, and CDK6/cyclinD3 enzymes commercially available from Merck Millipore were used for CDK1, CDK2, CDK5, and CDK6 enzymes, respectively, and CDK4/cyclinD1 enzyme commercially available from Signalchem (US) was used for CDK4. For CDK1, a reaction proceeded by adding 10 nM CDK1/cyclinB and 0.125 mg/ml histone H1 (Merck Millipore) substrate to the buffer and then adding 10 uM ATP thereto. For CDK2, a reaction was proceeded by adding 10 nM CDK2/cyclinE and 0.125 mg/ml histone H1 substrate to the buffer and then adding 10 uM ATP thereto. For CDK5, a reaction was proceeded by adding 10 nM CDK5/p25 and 0.125 mg/ml histone H1 substrate to the buffer and then adding 10 uM ATP thereto. For CDK4, a reaction was proceeded by adding 20 nM CDK4/cyclinD1 and 0.125 mg/ml Rb protein (Merck Millipore) to the buffer and then adding 10 uM ATP thereto. For CDK6, a reaction was proceeded by adding 50 nM CDK6/cyclinD3 and 0.125 mg/ml histone H1 substrate to the buffer and then adding 10 uM ATP thereto. Each enzyme reaction was incubated at 30° C. for 60 min. Then, the amount of ADP produced was measured using Victor X4 instrument (Perkin Elmer) after generating luminescence using ADP-Glo kinase assay kit (Promega, US). An inhibition effect on each enzyme was represented as a percentage of the luminescence value in the presence of the test compounds relative to the luminescence value without the test compounds. IC50 (nM) is the concentration of the compound to inhibit 50% of the enzyme activity.

CDK5/p25 = molecular target: T2, CDK5/p25 (Homo sapiens, UniProt Q00535); test: as above; assay type: biochemical; conditions: 10 uM ATP, histone H1 substrate
T2 construct: purchased Merck Millipore
Description: as §1, §2

CDK2/cyclinE = molecular target: T3, CDK2/cyclinE (Homo sapiens, UniProt P24941); test: as above; assay type: biochemical; conditions: 10 uM ATP, histone H1 substrate
T3 construct: purchased Merck Millipore
Description: as §1, §2

CDK6/cyclinD3 = molecular target: T4, CDK6/cyclinD3 (Homo sapiens, UniProt Q00534); test: as above; assay type: biochemical; conditions: 10 uM ATP, histone H1 substrate; read-out: IC50 CDK6/cyclinD
T4 construct: purchased Merck Millipore
Description: as §1, §2

CDK4/cyclinD1 = molecular target: T5, CDK4/cyclinD1 (Homo sapiens, UniProt P11802); test: as above; assay type: biochemical; conditions: 10 uM ATP, Rb protein substrate; read-out: IC50 CDK4/cyclinD
T5 construct: purchased Signalchem (US)
Description: as §1, §2

U-87MG = test: Inhibition of cancer cell proliferation (MTT); assay type: cell-based, human
In short: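 Absorbance at 535 nm of DMSO-dissolved formazan (2 h MTT) gives viability versus 0.08% DMSO-treated cells, and GI50 is derived from eight concentrations between 0.004 and 10 uM. Exposure lasts 72 h at 37 °C, 5% CO2, using 3000 cells/well in 10% FBS medium ([…] for NCI-H23, otherwise DMEM).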

SK-N-SH = test: Inhibition of cancer cell proliferation (MTT); assay type: cell-based, human
In short: (§3)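 Plate 3000 cells/well and let them adhere for 16 h. Add compound (0.004, 0.013, 0.04, 0.12, 0.37, 1.1, 3.3, 10 uM; 0.08% DMSO) and culture for 72 h. Add MTT for 2 h, dissolve formazan in DMSO, read at 535 nm, and fit GI50.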

SH-SY5Y = test: Inhibition of cancer cell proliferation (MTT); assay type: cell-based, human
In short: as §3

HCT116 = test: Inhibition of cancer cell proliferation (MTT); assay type: cell-based, human
T98G = test: Inhibition of cancer cell proliferation (MTT); assay type: cell-based, human; conditions: Homo sapiens, T98G, 72 h
In short: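 Growth inhibition over 72 h was measured in attached cultures (3000 per well) with 0.08% DMSO as the control. Viable cells were detected with a 2 h MTT step, and the concentration giving 50% inhibition was taken as GI50.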

[1] = Blood brain barrier permeation; assay type: in vivo, ICR mice; conditions: mouse, 10 mg/kg, oral once 10 mg/kg; for concentration at 1 h / concentration at 4 h / Kp at 1 h / Kp at 4 h: male, ICR, po; for Kp at 1 h / Kp at 4 h: brain/plasma, read-out: B/P ratio
Description: Using 9-week-old male ICR mice, the compounds obtained in the above Examples were orally administered once at a dose of 10 mg/kg or 30 mg/kg, and after 1 hr and 4 hrs, the concentrations of the compounds in the blood and brain of the mice were determined. 3 ICR mice were assigned in each group. Plasma was separated from the blood obtained after sacrificing the mice at each time, the brain of the mice was extracted, and the […] was washed with PBS, followed by pulverizing the brain tissue. The blood was placed in a test tube containing heparin to prevent coagulation and then was centrifuged at 12,000 rpm at 4° C. for 3 min to give a supernatant from which plasma was collected. Brain tissue was weighed, and the brain was pulverized using Dounce's homogenizer after adding 3 times as much volume of PBS as the brain weight. Each of the obtained analytical samples was quantitatively analyzed using a tandem liquid chromatography-mass spectrometer (Tandem LC/MS/MS, API3000 & Agilent 1100 series). Brain permeability of a compound is expressed as a value obtained by dividing the concentration of the compound in the brain by the concentration of the compound in the plasma (B/P ratio), and when the B/P ratio is greater than 1, it means that the concentration in the brain is higher than the one in the blood.

[2] = tested on: Human colon carcinoma HCT116 cell line; test: Tumor growth inhibition in an animal model (HCT116 xenograft); assay type: in vivo, Balb/c nude mouse; conditions: 100 mpk, oral daily for 12 days
Description: Tumor size was measured twice a week using Caliper. […] A vehicle control was 20% propylene glycol (PG) and a positive control was Xeloda at 100 mg/kg.

[3] = brain, read-out: Concentration in the brain
[4] = plasma, read-out: Concentration in the plasma

T1 sequence (P06493 whole entry): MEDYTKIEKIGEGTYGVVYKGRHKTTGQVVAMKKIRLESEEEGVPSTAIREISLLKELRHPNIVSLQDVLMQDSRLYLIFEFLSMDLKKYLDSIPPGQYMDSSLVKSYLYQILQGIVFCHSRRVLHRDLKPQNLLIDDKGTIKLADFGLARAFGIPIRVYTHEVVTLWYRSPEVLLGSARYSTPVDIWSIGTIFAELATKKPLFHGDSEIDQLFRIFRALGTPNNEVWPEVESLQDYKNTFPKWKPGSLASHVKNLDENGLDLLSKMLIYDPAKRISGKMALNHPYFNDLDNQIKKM
T1 sequence (P14635 whole entry partner): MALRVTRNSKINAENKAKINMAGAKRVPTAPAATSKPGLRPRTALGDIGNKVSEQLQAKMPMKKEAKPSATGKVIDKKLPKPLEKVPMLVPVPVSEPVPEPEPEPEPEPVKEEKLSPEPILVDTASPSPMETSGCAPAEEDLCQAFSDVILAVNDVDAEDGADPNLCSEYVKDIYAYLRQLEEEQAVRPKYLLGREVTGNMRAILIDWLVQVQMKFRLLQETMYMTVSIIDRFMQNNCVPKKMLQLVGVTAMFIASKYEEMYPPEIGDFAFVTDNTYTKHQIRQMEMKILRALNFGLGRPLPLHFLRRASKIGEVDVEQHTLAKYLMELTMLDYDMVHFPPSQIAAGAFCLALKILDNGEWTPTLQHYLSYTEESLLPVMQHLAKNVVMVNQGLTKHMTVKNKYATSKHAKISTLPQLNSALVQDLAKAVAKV
T2 sequence (Q00535 whole entry): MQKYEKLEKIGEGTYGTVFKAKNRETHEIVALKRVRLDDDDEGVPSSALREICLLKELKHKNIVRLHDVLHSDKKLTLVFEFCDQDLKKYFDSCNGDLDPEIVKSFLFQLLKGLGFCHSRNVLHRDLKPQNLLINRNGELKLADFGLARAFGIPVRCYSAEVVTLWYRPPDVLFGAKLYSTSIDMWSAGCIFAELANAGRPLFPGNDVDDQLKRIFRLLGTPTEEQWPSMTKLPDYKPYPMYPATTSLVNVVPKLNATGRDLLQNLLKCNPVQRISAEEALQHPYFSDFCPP
T2 sequence (Q15078 99-307 partner limits assumed): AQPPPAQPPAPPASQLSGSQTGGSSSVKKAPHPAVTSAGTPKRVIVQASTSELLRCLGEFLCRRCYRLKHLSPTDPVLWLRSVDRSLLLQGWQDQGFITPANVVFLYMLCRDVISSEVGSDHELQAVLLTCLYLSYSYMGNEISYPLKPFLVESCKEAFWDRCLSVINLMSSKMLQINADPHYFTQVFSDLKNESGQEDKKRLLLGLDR
T4 sequence (Q00534 whole entry): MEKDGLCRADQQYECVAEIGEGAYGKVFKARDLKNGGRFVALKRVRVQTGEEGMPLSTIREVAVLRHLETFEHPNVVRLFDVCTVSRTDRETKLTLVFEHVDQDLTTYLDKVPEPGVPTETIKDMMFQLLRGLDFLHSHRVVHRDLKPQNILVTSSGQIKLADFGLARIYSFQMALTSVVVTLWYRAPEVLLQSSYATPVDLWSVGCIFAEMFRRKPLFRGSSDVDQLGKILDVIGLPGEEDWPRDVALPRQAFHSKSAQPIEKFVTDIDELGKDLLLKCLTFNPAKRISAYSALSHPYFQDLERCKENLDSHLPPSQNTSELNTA
T4 sequence (P30281 whole entry partner): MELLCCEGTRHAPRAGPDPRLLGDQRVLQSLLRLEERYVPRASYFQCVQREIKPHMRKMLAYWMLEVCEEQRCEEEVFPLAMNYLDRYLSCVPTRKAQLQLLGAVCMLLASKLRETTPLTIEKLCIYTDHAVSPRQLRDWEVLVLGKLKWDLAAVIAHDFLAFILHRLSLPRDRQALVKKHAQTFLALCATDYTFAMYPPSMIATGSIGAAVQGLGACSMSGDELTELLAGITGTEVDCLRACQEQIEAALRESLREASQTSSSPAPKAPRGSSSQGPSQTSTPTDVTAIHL
T5 sequence (P11802 whole entry): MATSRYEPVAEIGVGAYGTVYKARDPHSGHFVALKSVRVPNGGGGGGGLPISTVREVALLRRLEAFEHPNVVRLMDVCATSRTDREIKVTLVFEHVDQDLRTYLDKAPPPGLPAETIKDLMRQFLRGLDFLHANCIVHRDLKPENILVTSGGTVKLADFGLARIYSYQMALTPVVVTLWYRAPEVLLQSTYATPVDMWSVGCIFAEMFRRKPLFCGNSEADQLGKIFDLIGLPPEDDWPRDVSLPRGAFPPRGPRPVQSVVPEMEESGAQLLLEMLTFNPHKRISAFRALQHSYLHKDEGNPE
T5 sequence (P24385 whole entry partner): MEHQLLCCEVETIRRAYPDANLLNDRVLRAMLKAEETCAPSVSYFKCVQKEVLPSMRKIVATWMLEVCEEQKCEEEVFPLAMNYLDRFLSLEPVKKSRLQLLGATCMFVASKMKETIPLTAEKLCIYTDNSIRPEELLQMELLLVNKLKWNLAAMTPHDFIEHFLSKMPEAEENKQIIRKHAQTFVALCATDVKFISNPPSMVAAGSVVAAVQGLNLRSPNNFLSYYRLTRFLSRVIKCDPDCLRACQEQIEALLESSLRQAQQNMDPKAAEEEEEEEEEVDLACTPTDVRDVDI

IC50 (CDK1/cyclinB) | IC50 (CDK5/p25) | IC50 (CDK2/cyclinE) | IC50 (CDK6/cyclinD3) | IC50 (CDK4/cyclinD1) | GI50 (U-87MG; Homo sapiens, U-87 MG, 72 h) | GI50 (SK-N-SH; Homo sapiens, SK-N-SH, 72 h) | GI50 (SH-SY5Y; Homo sapiens, SH-SY5Y, 72 h) | GI50 (HCT116; Homo sapiens, HCT-116, 72 h) | Structure (SMILES) | further results
12.6 nM | 5.9 nM | 6.6 nM | 50.7 nM | > 200 nM | 790 nM | 420 nM | 240 nM | 230 nM | Nc1nccc(-c2nc(-c3ccncc3)ccc2O)n1 [Example 12, 6-(2-aminopyrimidin-4-yl)-[2,4′-bipyridin]-5-ol] | GI50 (T98G): 1830 nM; concentration at 1 h [1, 3]: 71.1 ng/g; concentration at 4 h ([1]; brain, 4 hrs, read-out: Concentration in the brain): 9.1 ng/g; Kp at 1 h [1]: 4.1; Kp at 4 h ([1]; 4 hrs): 3.54; concentration at 1 h [1, 4]: 17.3 ng/mL; concentration at 4 h ([1]; plasma, 4 hrs, read-out: Concentration in the plasma): 2.6 ng/mL
– | – | – | – | – | 3600 nM | 2910 nM | 570 nM | 1330 nM | Nc1cccc(-c2ccc(O)c(-c3ccnc(N)n3)n2)c1 [Example 16, 6-(3-aminophenyl)-2-(2-aminopyrimidin-4-yl)pyridin-3-ol] | –
11.6 nM | 2.3 nM | 6.4 nM | 44.8 nM | 287 nM | 630 nM | 200 nM | 90 nM | 200 nM | Nc1nccc(-c2nc(-c3ccc(O)cc3)ccc2O)n1 [Example 9, 2-(2-aminopyrimidin-4-yl)-6-(4-hydroxyphenyl)pyridin-3-ol] | –
– | – | – | – | – | – | – | – | – | Nc1nccc(-c2nc(-c3ccnc(N)c3F)ccc2O)n1 [Example 69, 2′-amino-6-(2-aminopyrimidin-4-yl)-3′-fluoro-[2,4′-bipyridin]-5-ol 2malonate] | GI50 (U-87MG; 72 hrs): 90 nM; GI50 (SK-N-SH; 72 hrs): 20 nM; GI50 (SH-SY5Y; 72 hrs): 4 nM; GI50 (HCT116; 72 hrs): 80 nM
– | – | – | – | – | 3410 nM | 1040 nM | 540 nM | 590 nM | Nc1nccc(-c2nc(-c3ccncc3F)ccc2O)n1 [Example 14, 6-(2-aminopyrimidin-4-yl)-3′-fluoro-[2,4′-bipyridin]-5-ol] | –
– | – | – | – | – | 4600 nM | 7220 nM | 680 nM | 6970 nM | Nc1nccc(-c2nc(-c3cccc(O)c3)ccc2O)n1 [Example 13, 2-(2-aminopyrimidin-4-yl)-6-(3-hydroxyphenyl)pyridin-3-ol] | –
– | – | – | – | – | – | – | – | – | Nc1nccc(-c2nc(-c3ccc(O)cc3F)ccc2O)n1 [Example 70, 2-(2-aminopyrimidin-4-yl)-6-(2-fluoro-4-hydroxyphenyl)pyridin-3-ol 2hydrochloride] | GI50 (U-87MG; 72 hrs): 1650 nM; GI50 (SK-N-SH; 72 hrs): 580 nM; GI50 (SH-SY5Y; 72 hrs): 160 nM; GI50 (HCT116; 72 hrs): 530 nM
26.8 nM | 6.1 nM | 10.7 nM | 181 nM | > 200 nM | 5860 nM | 780 nM | 200 nM | 340 nM | Nc1nccc(-c2nc(-c3cccc(N)c3F)ccc2O)n1 [Example 18, 6-(3-amino-2-fluorophenyl)-2-(2-aminopyrimidin-4-yl)pyridin-3-ol] | –
6.1 nM | 1.5 nM | 4.5 nM | 73.6 nM | 403 nM | 890 nM | 310 nM | 110 nM | 140 nM | Nc1nccc(-c2nc(-c3ccnc(N)c3O)ccc2O)n1 [Example 21, 2′-amino-6-(2-aminopyrimidin-4-yl)-[2,4′-bipyridin]-3′,5-diol] | –
30.8 nM | 3.3 nM | 9.4 nM | 65.3 nM | > 200 nM | 1700 nM | 840 nM | 290 nM | 610 nM | Nc1nccc(-c2nc(-c3ccc(O)cc3F)ccc2O)n1 [Example 17, 2-(2-aminopyrimidin-4-yl)-6-(2-fluoro-4-hydroxyphenyl)pyridin-3-ol] | –
– | – | – | – | – | 1180 nM | 390 nM | 190 nM | 520 nM | Nc1nccc(-c2nc(-c3ccc(O)c(F)c3F)ccc2O)n1 [Example 20, 2-(2-aminopyrimidin-4-yl)-6-(2,3-difluoro-4-hydroxyphenyl)pyridin-3-ol] | GI50 (T98G): 4310 nM
19.6 nM | 6.4 nM | 14.6 nM | 129 nM | > 200 nM | 440 nM | 210 nM | 120 nM | 460 nM | Nc1nccc(-c2nc(-c3ccc(O)c(F)c3)ccc2O)n1 [Example 19, 2-(2-aminopyrimidin-4-yl)-6-(3-fluoro-4-hydroxyphenyl)pyridin-3-ol] | GI50 (T98G): 2610 nM
– | – | – | – | – | – | – | – | – | CCCCCOC(=O)Nc1nc(=O)n([C@@H]2O[C@H](C)[C@@H](O)[C@H]2O)cc1F [Xeloda, reference compound] | Tumor size [2]: 994.7 ± 405.5 mm^3; tumor growth inhibition ([2]; vs vehicle control): 46%
– | – | – | – | – | – | – | – | – | Nc1nccc(-c2nc(-c3ccnc(N)c3F)ccc2O)n1 [Example 68, 2′-amino-6-(2-aminopyrimidin-4-yl)-3′-fluoro-[2,4′-bipyridin]-5-oloxalate] | GI50 (U-87MG; 72 hrs): 100 nM; GI50 (SK-N-SH; 72 hrs): 30 nM; GI50 (SH-SY5Y; 72 hrs): 10 nM; GI50 (HCT116; 72 hrs): 10 nM
– | – | – | – | – | – | – | – | – | Nc1nccc(-c2nc(-c3ccnc(N)c3F)ccc2O)n1 [Example 67, 2′-amino-6-(2-aminopyrimidin-4-yl)-3′-fluoro-[2,4′-bipyridin]-5-ol acetate] | GI50 (U-87MG; 72 hrs): 90 nM; GI50 (SK-N-SH; 72 hrs): 20 nM; GI50 (SH-SY5Y; 72 hrs): 10 nM; GI50 (HCT116; 72 hrs): 10 nM; concentration at 1 h [1, 3]: 55.1 ng/g; Kp at 1 h [1]: 2.21; Kp at 4 h ([1]; 4 hrs): 3.97; concentration at 1 h [1, 4]: 24.9 ng/mL; Concentration in the brain ([1]; 4 hrs): 15.5 ng/g; Concentration in the plasma ([1]; 4 hrs): 3.9 ng/mL
